Publication PMC5820588, “Isolation and Biological Evaluation of Prenylated Flavonoids from Maclura pomifera” (Evidence-based Complementary and Alternative Medicine : eCAM, 2018)

Columns and labels:
κ opioid receptor = κ opioid receptor (Homo sapiens, UniProt P41145); assay: Opioid receptor assay, κ (Naloxone as control); assay type: binding; details: negative value read as possibly allosteric
Procedure: (§1) The affinities of the total extracts and the isolated compounds towards cannabinoid and opioid receptors were assessed according to the published method.
(§2) The affinities of the total extracts and the isolated compounds towards cannabinoid and opioid receptors were assessed using CP-55940 and Naloxone as controls for cannabinoid and opioid receptors assays, respectively.

[1] = molecular target: T1, recombinant human monoamine oxidase-A (Homo sapiens, UniProt P21397); assay: MAO-A inhibition, kynuramine deamination assay; assay type: biochemical; details: kynuramine 80 μM, pH 7.4, 37°C; mean ±SD of triplicate
T1 construct: purchased BD Biosciences (Bedford, MA, USA)
T1 sequence (P21397 1-527): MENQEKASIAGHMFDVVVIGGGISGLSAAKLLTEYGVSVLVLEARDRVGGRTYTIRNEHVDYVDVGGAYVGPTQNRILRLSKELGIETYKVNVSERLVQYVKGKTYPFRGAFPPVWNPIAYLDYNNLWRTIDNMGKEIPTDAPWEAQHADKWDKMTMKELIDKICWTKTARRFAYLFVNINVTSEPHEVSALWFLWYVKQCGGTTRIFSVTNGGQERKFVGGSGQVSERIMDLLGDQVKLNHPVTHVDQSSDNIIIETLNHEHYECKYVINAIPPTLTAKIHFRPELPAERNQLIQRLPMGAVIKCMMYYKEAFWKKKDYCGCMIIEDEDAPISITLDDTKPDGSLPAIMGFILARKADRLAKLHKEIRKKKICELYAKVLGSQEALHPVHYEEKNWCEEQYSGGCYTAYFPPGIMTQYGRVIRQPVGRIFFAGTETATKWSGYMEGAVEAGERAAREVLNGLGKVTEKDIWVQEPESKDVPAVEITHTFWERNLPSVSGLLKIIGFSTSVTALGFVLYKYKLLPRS
Procedure: (§3) The inhibitory effects of the chemical components of M. pomifera (L.) on MAO-A and MAO-B were determined via the kynuramine deamination assay, where it was adapted for 96-well plates as described earlier. A fixed concentration of the substrate and varying concentrations of the inhibitor were used to determine the IC50 value at the point where 50% inhibition of the catalytic activity of the enzyme occurred. For MAO-A, the substrate (kynuramine) concentration of 80 μM was chosen, since the KM value of substrate binding reported previously was approximately 40 μM [23]. […] Similarly, for MAO-B, a substrate (kynuramine) concentration of 50 μM was chosen. The assay was performed with the addition of the inhibitor. Inhibition was calculated as percent of the product formation compared to the corresponding control (enzyme-substrate reaction) without the inhibitors. The enzyme reactions were carried out in 0.1 M potassium phosphate buffer at pH 7.4. Reaction mixtures contained 5 μg/mL of MAO-A (18.75 μL in buffer) and 10 μg/mL of MAO-B (18.75 μL in buffer). The compounds were dissolved in DMSO and diluted in buffer. The total reaction mixture volume was 75 μL, yielding a final DMSO concentration of 1.0% in the reaction mixture. The reaction mixtures were preincubated for 10 min at 37°C followed by the addition of MAO-A/MAO-B to initiate the reactions. The reaction mixtures were incubated for 20 min at 37°C and stopped by the addition of 28 μL of 2 N NaOH. The formation of 4-hydroxyquinoline was determined fluorometrically by Spectra Max M5 fluorescence plate reader (Molecular Devices, Sunnyvale, CA, USA) with an excitation and emission wavelength of 320 nm and 380 nm, respectively, using the Soft Max Pro program. Appropriate controls were set up to check the interference with the fluorescence measurements. […] The determination of IC50 values for inhibition of MAO-A and MAO-B by the M. pomifera (L.) compounds was performed using a fixed concentration of the substrate and varying the concentration of the inhibitor.
(§4) The compounds isolated from M. pomifera (L.) fruits were tested for their inhibitory effect against recombinant human MAO isoforms (MAO-A and MAO-B) in vitro. The enzymatic activity of MAO-A and MAO -B was determined via a fluorescence based method.

μ opioid receptor = μ opioid receptor (Homo sapiens, UniProt P35372); assay: Opioid receptor assay, μ (Naloxone as control); assay type: binding; details: negative value read as possibly allosteric
Procedure: as §1, §2

CB1 receptor = CB1 receptor (Homo sapiens, UniProt P21554); assay: Cannabinoid receptor assay, CB1 (CP-55940 as control); assay type: binding
Procedure: as §1, §2

[2] = molecular target: T2, recombinant human monoamine oxidase-B (Homo sapiens, UniProt P27338); assay: MAO-B inhibition, kynuramine deamination assay; assay type: biochemical; details: for IC50: kynuramine 50 μM, pH 7.4, 37°C, mean ±SD of triplicate; for SI index MAO-A/B: ratio of MAO-A IC50 to MAO-B IC50; for Selectivity of MAO inhibition: MAO-B versus MAO-A
T2 construct: purchased BD Biosciences (Bedford, MA, USA)
T2 sequence (P27338 1-520): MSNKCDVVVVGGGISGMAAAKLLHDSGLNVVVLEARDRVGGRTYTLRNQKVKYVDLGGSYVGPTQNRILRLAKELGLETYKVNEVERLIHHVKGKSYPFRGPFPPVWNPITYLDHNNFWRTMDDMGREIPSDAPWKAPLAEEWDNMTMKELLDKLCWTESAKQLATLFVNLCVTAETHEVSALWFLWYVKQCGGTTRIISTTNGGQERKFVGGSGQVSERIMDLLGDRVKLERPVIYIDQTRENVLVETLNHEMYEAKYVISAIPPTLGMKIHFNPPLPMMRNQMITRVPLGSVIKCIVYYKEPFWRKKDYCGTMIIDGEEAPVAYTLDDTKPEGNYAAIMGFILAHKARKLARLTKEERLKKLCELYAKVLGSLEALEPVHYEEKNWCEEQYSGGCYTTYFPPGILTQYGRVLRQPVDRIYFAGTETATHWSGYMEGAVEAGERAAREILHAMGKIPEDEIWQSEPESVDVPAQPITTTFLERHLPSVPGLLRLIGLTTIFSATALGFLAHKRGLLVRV
Procedure: as §3, §4

CB2 receptor = CB2 receptor (Homo sapiens, UniProt P34972); assay: Cannabinoid receptor assay, CB2 (CP-55940 as control); assay type: binding
Procedure: as §1, §2

Sequence of CB1 receptor (P21554 whole entry): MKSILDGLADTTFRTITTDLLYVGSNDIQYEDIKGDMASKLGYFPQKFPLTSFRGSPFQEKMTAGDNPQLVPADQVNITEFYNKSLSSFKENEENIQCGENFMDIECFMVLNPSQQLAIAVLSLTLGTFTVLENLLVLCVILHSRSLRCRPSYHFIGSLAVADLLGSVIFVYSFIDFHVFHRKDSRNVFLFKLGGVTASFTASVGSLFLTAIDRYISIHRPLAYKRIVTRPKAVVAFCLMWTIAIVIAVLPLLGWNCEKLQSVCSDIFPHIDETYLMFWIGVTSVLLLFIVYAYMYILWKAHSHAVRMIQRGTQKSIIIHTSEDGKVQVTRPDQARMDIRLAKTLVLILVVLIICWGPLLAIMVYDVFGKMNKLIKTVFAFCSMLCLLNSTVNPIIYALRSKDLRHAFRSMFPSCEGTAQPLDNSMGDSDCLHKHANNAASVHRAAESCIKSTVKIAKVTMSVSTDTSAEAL
Sequence of CB2 receptor (P34972 whole entry): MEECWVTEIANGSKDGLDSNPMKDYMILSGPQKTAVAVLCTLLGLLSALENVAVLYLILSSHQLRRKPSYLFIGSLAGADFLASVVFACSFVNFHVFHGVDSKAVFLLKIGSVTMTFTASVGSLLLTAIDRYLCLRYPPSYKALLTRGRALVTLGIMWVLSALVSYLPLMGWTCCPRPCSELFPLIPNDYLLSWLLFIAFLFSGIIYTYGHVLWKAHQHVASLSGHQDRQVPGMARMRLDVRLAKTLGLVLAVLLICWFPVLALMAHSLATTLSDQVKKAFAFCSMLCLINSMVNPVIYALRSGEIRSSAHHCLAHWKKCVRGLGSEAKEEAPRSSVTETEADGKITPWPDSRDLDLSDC
Sequence of κ opioid receptor (P41145 whole entry): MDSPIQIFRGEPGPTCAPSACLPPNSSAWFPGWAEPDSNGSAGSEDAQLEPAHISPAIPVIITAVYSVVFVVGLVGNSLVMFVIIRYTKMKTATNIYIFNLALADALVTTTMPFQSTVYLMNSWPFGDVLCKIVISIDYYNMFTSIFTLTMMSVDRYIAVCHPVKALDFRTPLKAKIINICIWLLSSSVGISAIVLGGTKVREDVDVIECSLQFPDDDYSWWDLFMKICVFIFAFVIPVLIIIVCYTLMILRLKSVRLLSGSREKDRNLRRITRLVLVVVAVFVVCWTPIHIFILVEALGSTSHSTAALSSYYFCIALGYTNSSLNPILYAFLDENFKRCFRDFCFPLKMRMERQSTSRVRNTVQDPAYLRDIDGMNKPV
Sequence of μ opioid receptor (P35372 whole entry): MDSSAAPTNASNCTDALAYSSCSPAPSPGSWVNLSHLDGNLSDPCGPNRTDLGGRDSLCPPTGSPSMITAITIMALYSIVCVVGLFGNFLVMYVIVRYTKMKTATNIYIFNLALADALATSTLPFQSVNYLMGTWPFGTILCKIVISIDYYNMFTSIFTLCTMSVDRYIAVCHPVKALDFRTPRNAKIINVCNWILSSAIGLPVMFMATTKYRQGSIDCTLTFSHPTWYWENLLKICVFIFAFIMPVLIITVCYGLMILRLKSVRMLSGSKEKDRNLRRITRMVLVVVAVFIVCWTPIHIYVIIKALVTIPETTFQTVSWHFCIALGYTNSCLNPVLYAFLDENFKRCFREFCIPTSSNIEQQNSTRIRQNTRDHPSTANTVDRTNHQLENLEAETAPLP

Row | κ opioid receptor % displacement (κ opioid receptor) | IC50 [1] | μ opioid receptor % displacement (μ opioid receptor) | CB1 % displacement (CB1 receptor; concentration not given) | IC50 [2] | SI index MAO-A/B [2] | Selectivity of MAO inhibition [2] | CB2 % displacement (CB2 receptor; concentration not given) | IC50 (CB2 receptor) | Ki (CB2 receptor) | CB2 % displacement (CB2 receptor; 10 μM) | IC50 (CB1 receptor) | CB1 % displacement (CB1 receptor; 10 μM) | Ki (CB1 receptor) | SMILES
1 | −88.4% | 74.3 ± 3.44 µM | −27.2% | 60.5% | 11.6 ± 1.39 µM | 6.413 |  |  |  |  |  |  |  |  | COC(Cc1c2c(c(O)c3c(=O)c(-c4ccc(O)c(O)c4)coc13)C=CC(C)(C)O2)C(C)(C)O (stereo not drawn) [Kazosajin I, 3-(3,4-Dihydroxyphenyl)-5-hydroxy-10-(3-hydroxy-2-methoxy-3-methylbutyl)-8,8-dimethylpyrano[3,2-g]chromen-4(8H)-one]
2 |  | > 100 µM |  |  | 7.16 ± 1.15 µM |  | selective inhibition of MAO-B |  |  |  |  |  |  |  | CC1(C)C=Cc2c(c3c(c4c(=O)c(-c5ccc(O)cc5)coc24)OC(C)(C)C(O)C3)O1 (stereo not drawn) [Kazosajin III, 11-Hydroxy-7-(4-hydroxyphenyl)-2,2,10,10-tetramethyl-11,12-dihydro-2H-dipyrano[2,3-f: 2′,3′-h]chromen-8(10H)-one]
3 |  | 72 ± 3.72 µM |  | 47.9% | 4.28 ± 0.67 µM | 16.829 | selective inhibition of MAO-B | 42.3% |  |  |  |  |  |  | C=C(C)C(O)C(=O)c1c2c(c3occ(-c4ccc(O)c(O)c4)c(=O)c3c1O)C=CC(C)(C)O2 (stereo not drawn) [Kazosajin II, 3-(3,4-Dihydroxyphenyl)-5-hydroxy-6-(2-hydroxy-3-methylbut-3-enoyl)-8,8-dimethylpyrano[2,3-f]chromen-4(8H)-one]
4 |  | > 100 µM |  | 111.3% | 5.69 ± 0.38 µM |  | selective inhibition of MAO-B | 77.57% | 4.44 µM | 2.22 µM | 77.6% | 1.67 µM | 111.3% |  | CC(C)=CCc1c2c(c(O)c3c(=O)c(-c4ccc(O)cc4)coc13)C=CC(C)(C)O2 [Warangalone (VII), warangalone]
5 |  | 46 ± 4.48 µM |  |  | 1.91 ± 0.32 µM | 24.073 | selective inhibition of MAO-B |  |  |  |  | 8.92 µM | 86.7% | 4.46 µM | CC(C)=CCc1c2c(c(O)c3c(=O)c(-c4ccc(O)c(O)c4)coc13)C=CC(C)(C)O2 [Auriculasin (VI), auriculasin]
6 |  | > 100 µM |  | 93.9% | > 100 µM |  |  | 52.7% | 7.65 µM | 3.82 µM | 52.7% | 3.86 µM | 93.9% | 1.93 µM | CC(C)=CCc1c2c(c3occ(-c4ccc(O)cc4)c(=O)c3c1O)C=CC(C)(C)O2 [Osajin (VIII), osajin]
7 |  | 71.2 ± 2.61 µM |  |  | 17.7 ± 1.06 µM | 4.032 |  |  |  |  |  |  |  |  | COC(c1c2c(c(O)c3c(=O)c(-c4ccc(O)c(O)c4)coc13)C=CC(C)(C)O2)C1OC1(C)C (stereo not drawn) [Kazosajin IV, 3-(3,4-Dihydroxyphenyl)-10-((3,3-dimethyloxiran-2-yl)(methoxy)methyl)-5-hydroxy-8,8-dimethylpyrano[3,2-g]chromen-4(8H)-one]

Row | SMILES | κ opioid receptor % displacement (κ opioid receptor) | IC50 [1] | μ opioid receptor % displacement (μ opioid receptor) | CB1 % displacement (CB1 receptor; concentration not given) | IC50 [2] | SI index MAO-A/B [2] | Selectivity of MAO inhibition [2] | CB2 % displacement (CB2 receptor; concentration not given) | IC50 (CB2 receptor) | Ki (CB2 receptor) | CB2 % displacement (CB2 receptor; 10 μM) | IC50 (CB1 receptor) | CB1 % displacement (CB1 receptor; 10 μM) | Ki (CB1 receptor)
8 | CC(C)=CCc1c2c(c3occ(-c4ccc(O)c(O)c4)c(=O)c3c1O)C=CC(C)(C)O2 [Pomiferin (V), pomiferin] |  | > 100 µM |  | 107.2% | > 100 µM |  |  | 66.0% | 1.32 µM |  | 66.0% | 2.11 µM | 107.2% | 1.05 µM
